This is an account of results in patent US9909104B2, “Generating definitive endoderm and pancreatic progenitor cells” (The J. David Gladstone Institutes, a testamentary trust …, priority 2013, dated 2018).

For test [1], the system named is Dox-inducible secondary mouse embryonic fibroblasts (MEFs). The test is described as follows: Direct reprogramming of secondary MEFs into definitive endoderm-like cells (Sox17/Foxa2). It counts as cell-based. As to conditions: 1 μM Bix-01294 D0-D6; 280 μM pVc D0-D12.
Protocol: Dox-inducible secondary mouse embryonic fibroblasts (MEFs) (cells at passage 3-4 were regularly used) were plated on Matrigel-coated culture dishes at a cell density of 1×10^4 cells/cm^2. Cells were cultured in MEF medium (Dulbecco's modified Eagle's medium with 10% fetal bovine serum and 2 mM Glutamax) for an additional day. The medium was then changed to Med I (Knock-out DMEM with 10% knock-out serum replacer, 5% FBS, 2 mM Glutamax, 0.1 mM non-essential amino acids (NEAA), and 0.055 mM β-mercaptoethanol) supplemented with 4 μg/ml Dox, 50 ng/ml Activin A and 1 mM LiCl for the indicated time. […] All reagents were purchased from Invitrogen if not specified, and all cytokines were from R&D Systems. […]
Total RNA was extracted using the RNeasy Plus Mini Kit in combination with QIAshredder (Qiagen). […] Expression of pluripotency and lineage-specific marker genes was analyzed by real-time PCR with iQ SYBR Green Supermix (Bio-Rad). […]
To test this hypothesis, conditions were evaluated in which definitive endoderm induction factors (Activin/Li) were added to fibroblasts either after (Approach-I) or during (Approach II) iPSC factor expression, using Sox17 and Foxa2 expression as a measure of DELC induction (FIG. 1A).
The subject of test [2] is definitive endoderm-like cells (DELCs). The test is described as follows: Induction of DELCs into Pdx1+/Nkx6.1+ pancreatic progenitor-like cells (step III). The format is cell-based, mouse. The following applies: screen of 400 compounds, confirmed in larger-well cultures.
Protocol: At the end of treatment, lineage specific markers were analyzed by immunostaining and/or real-time PCR.
Primary antibodies used were Sox17 (R&D), Foxa2 (Millipore), Pdx1 (R&D), Hnf6 (Santa Cruz), Pax6 (Covance), Sox9 (Santa Cruz), Nkx6.1 (Developmental Studies Hybridoma Bank), Insulin (Dako), Glucagon (Sigma), Somatostatin (Abcam), Amylase (Abcam), and CK19 (Abcam). Nuclei were visualized by DAPI (Sigma-Aldrich) staining Images were captured using a Nikon Eclipse TE2000-U microscope.
An available drug collection of 400 compounds in the 48-well format was screened to identity small molecules that induce high percentages of Pdx1^+/Nkx6.1^+ cells in DELC populations. Med-III medium (DMEM supplemented with 1×B27, 2 mM Glutamax) was used as the basal condition and double staining of Pdx1 and Nkx6.1 at 4 days post-induction was used as the readout.
Induction of Pdx1 and Nkx6.1 expression by small molecules is referred herein to the “third step” (step III) of pancreatic induction.
The subject of the next test is secondary MEF cells. The test is described as follows: Small molecules in first/second reprogramming steps, Pdx1/Nkx6.1 double staining on day 16. The format is cell-based, mouse. The following applies: 1 μM Bix-01294 D0 to D6; 280 μM pVc D0 to D12; readout day 16. How it is done: The inventors then hypothesized that overlapping lineage-specific patterning conditions based on small molecules with early reprogramming would enhance pancreatic induction. To this end, further screens of the inventors' drug collection were performed during the first- and second-step inductions, with double staining of Pdx1 and Nkx6.1 at the end of the third step (day 16) as a readout. […] In particular, 1 μM Bix-01294 (a G9a histone methyltransferase inhibitor), when added from D0 to D6, and 280 μM pVc, when added from D0 to D12, increased the number of Pdx1+/Nkx6.1+ colonies to about 3 fold and 4 fold respectively (FIG. 4D-4E).

Test [3] has as its system pancreatic progenitor-like cells (PPLCs). The test is described as follows: Maturation of PPLCs into pancreatic-like cells (step IV, day 25). The format is cell-based, mouse. As to conditions: 5 μM SB203580 or 280 μM pVc used individually, D16-D25, day 25. How it is done:
The pancreatic progenitor-like cells generated as described herein were treated with Med-IV medium containing laminin, nicotinamide, and B27 etc. as previously reported (Schroeder et al., 2006) to determine whether those PPLCs can be further differentiated into mature pancreatic like cells. After 9 days of culture in this medium, a small population (about 0.5%) of insulin and C-peptide double-positive cells was detected.
To improve efficiency of pancreatic maturation, the inventors' drug collection was further screened in a “fourth” step (step IV) to identify compounds that increase the percentage of cells that express insulin and Pdx1 on day 25.

For test [4], the system named is HDAC activity in HeLa extracts. The following applies: read-out: IC50 for inhibition of HDAC activity; cited from earlier work.
A further test has as its system cPE cells. The experiment in a line: Maturation of cPE cells into C-peptide positive beta-like cells in vitro. The format is cell-based, human. The following applies: supplemented individually to basal pancreatic differentiation media. From the text:
Full maturation towards glucose responsive cells is optimally illustrated by transplantation of in vitro differentiated pancreas endoderm progenitor cells into immune compromised mice. […] While C-peptide positive cells expressing high levels of PDX1 were consistently observed after 10-14 days in culture (FIG. 11B), the relatively low number of cells (˜0.5%) indicated further optimization of conditions may improve the frequency of conversion to functional beta-like cells. Chemical compounds able to promote differentiation of definitive endoderm (Borowiak et al. (2009)) and PDX1^+ progenitors (Chen et al. (2009) have been identified previously. However, molecules directing the final steps of differentiation into beta-like cells have not been uncovered, likely due to difficulties in generating and maintaining sufficient numbers of differentiation-competent pancreatic endodermal progenitor cells.
A chemical screen was performed with the intent of identifying factors that would result in the more efficient development of C-peptide positive cells from expanded cPE cells.

The subject of test [5] is histone deacetylases (HDACs). The following applies: isoform not stated; read-out: IC50 (histone deacetylase); cited from earlier work.
The next test addresses γ-secretase. The following applies: total β-amyloid; cited from earlier work.
A further test relates to presenilase activity. The following applies: At higher concentrations (20-4000/1); cited from earlier work.
Another test concerns the target SAPK2/p38 (Homo sapiens, UniProt Q16539). The following applies: CK1 and ALK5 inhibitor; cited from earlier work.
The test system of test [6] is Human foreskin fibroblasts. The experiment in a line: Conversion of human fibroblasts into definitive endodermal progenitor (cDE) colonies.

SAPK2/p38, sequence (Q16539 whole entry): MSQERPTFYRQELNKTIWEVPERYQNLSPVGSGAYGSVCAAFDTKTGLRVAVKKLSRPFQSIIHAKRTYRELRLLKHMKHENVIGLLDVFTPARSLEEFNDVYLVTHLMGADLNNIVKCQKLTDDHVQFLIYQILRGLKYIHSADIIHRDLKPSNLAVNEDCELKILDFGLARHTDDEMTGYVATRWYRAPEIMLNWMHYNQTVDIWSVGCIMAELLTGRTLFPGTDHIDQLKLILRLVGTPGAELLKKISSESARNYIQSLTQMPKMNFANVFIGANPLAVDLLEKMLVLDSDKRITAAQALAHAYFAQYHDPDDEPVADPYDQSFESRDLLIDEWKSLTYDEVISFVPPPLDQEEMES

For the molecule “2-phospho-L-ascorbic acid trisodium salt [pVc]”, the “numbers of Sox17 and Foxa2 single positive and double positive cells” value in test [1] is “no significant influence”. In [2], the “hit confirmation: increase of Pdx1 and/or Nkx6.1 expression” value (“hit confirmation: increase” for short) is given as “Confirmed hits”. The “number of Pdx1+/Nkx6.1+ colonies” value with secondary MEF cells is approximately 4 fold. The “number of insulin+/Pdx1+ double-positive cells” value in [3] is reported as “significantly increased”. As to `Cc1cccc(-c2nn(C(=S)Nc3ccccc3)cc2-c2ccnc3ccccc23)n1` [A83-01, 3-(6-Methyl-2-pyridinyl)-N-phenyl-4-(4-quinolinyl)-1H-pyrazole-1-carbothioamide], the “hit confirmation: increase” value in [2] was “Confirmed hits”. By IC50 is commonly meant the point on the concentration scale where inhibition reaches its midpoint. With `Nc1ccccc1NC(=O)CCCCCCC(=O)Nc1ccccc1` [BML-210, N1-(2-aminophenyl)-N8-phenyl-octanediamide], in [4], the IC50 was approximately 80000 nM. As to `COC(=O)C1=C(C)NC(C)=C([N+](=O)[O-])C1c1ccccc1C(F)(F)F` (stereo not drawn) [BayK-8644, 3-pyridinecarboxylic acid, 1,4-dihydro-2,6-dimethyl-5-nitro-4-(2-(trifluoromethyl)phenyl), methyl ester], the “effect on percentage of C-peptide positive cells” value (“effect on percentage” for short) in the test on cPE cells is “effective in increasing”.

As for `COc1cc2nc(N3CCCN(C)CC3)nc(NC3CCN(Cc4ccccc4)CC3)c2cc1OC` [Bix-01294], the “numbers of Sox17 and Foxa2 single positive and double positive cells” value in test [1] was “no significant influence”. Further, in the test on secondary MEF cells, the “number of Pdx1+/Nkx6.1+ colonies” value was “about 3 fold”.

Turning to `CC1(C)NC(=O)C(CCCCCC(=O)[C@H]2CO2)NC(=O)C2CCCN2C(=O)[C@@H](Cc2ccccc2)NC1=O` (stereo partly drawn) [Chlamydocin, (3R)-3-benzyl-6,6-dimethyl-9-[6-[(2R)-oxiran-2-yl]-6-oxohexyl]-1,4,7,10-tetrazabicyclo[10.3.0]pentadecane-2,5,8,11-tetrone], the IC50 in [5] is approximately 0.15 nM.

With `C[C@H](NC(=O)Cc1cc(F)cc(F)c1)C(=O)N[C@H]1N=C(c2ccccc2)c2ccccc2N(C)C1=O` [Compound E], the “effect on percentage” value in the test on cPE cells is reported as “effective in increasing”. On γ-secretase, the IC50 is 0.3 nM. Besides, the “effect on presenilase activity” value with presenilase activity is reported as “only weakly affects”. For `NC(=O)c1ccc(-c2nc(-c3ccc4c(c3)OCCO4)c(-c3ccccn3)[nH]2)cc1` [D 4476, 4-[4-(2,3-Dihydro-1,4-benzodioxin-6-yl)-5-(2-pyridinyl)-IH-imidazol-2-yl]benzamide], the “selectivity over SAPK2/p38” value at SAPK2/p38 is given as “greater than 20 fold”. Turning to `CC1NC(=O)C(C)NC(=O)C2CCCN2C(=O)C(CCCCCCC(=O)C2CO2)NC1=O` [HC Toxin, (6R,9S,14aR)-3,6R-dimethyl-9S-(7-((S)-oxiran-2-yl)-7-oxoheptyl)decahydropyrrolo[1,2-a][1,4,7,10]tetraazacyclododecine-1,4,7,10-tetranone], the IC50 in [5] was 30 nM. Regarding `Cc1c(C(=O)Nc2ccc(N3C[C@@H](C)O[C@@H](C)C3)nc2)cccc1-c1ccc(OC(F)(F)F)cc1` [LDE225], the “hit confirmation: increase” value in test [2] is listed as “Confirmed hits”. `Nc1ccccc1NC(=O)c1ccc(CNc2nccc(-c3cccnc3)n2)cc1` [MGCD0103, N-(2-aminophenyl)-4-[[(4-pyridin-3-ylpyrimidin-2-yl)amino]methyl]benzamide]: the IC50 in [5] is approximately 100 nM. On to `Nc1ccccc1NC(=O)c1ccc(CNC(=O)OCc2cccnc2)cc1` [MS-27-275, pyridin-3-ylmethyl-N-[[4-[(2-aminophenyl)carbamoyl]phenyl]methyl]carbamate], for which, in test [5], the IC50 is 100 to 1000 nM. For the molecule `CCNC(=O)[C@H]1O[C@@H](n2cnc3c(N)ncnc32)C(O)C1O` (stereo partly drawn) [NECA, 5′-N-ethylcarboxamidoadenosine], in [6] (FOXA2 positive colonies day 28), the “further increase of conversion rate over improved condition (NaB, Par, RG)” value is 2 fold. Further, the “increase over the basal protocol” value in [6] (NECA together with NaB, Par, RG108) was 5 fold. The “FOXA2 and SOX17 double-positive cDE colonies from 400,000 human fibroblasts” value in [6] (optimized condition (NaB, Par, RG108, NECA)) is “approximately fifty”. As for `C[S+]([O-])c1ccc(-c2nc(-c3ccc(F)cc3)c(-c3ccncc3)[nH]2)cc1` (stereo not drawn) [SB203580, 4-(4-fluorophenyl)-2-(4-methylsulfinylphenyl)-5-(4-pyridyl)-1H-imidazole], the “number of insulin+/Pdx1+ double-positive cells” value in test [3] is “significantly increased”. As to `CC(/C=C/C(=O)NO)=C\[C@@H](C)C(=O)c1ccc(N(C)C)cc1` [Trichostatin A, (R,2E,4E)-6-(4-(dimethylamino)benzoyl)-N-hydroxy-4-methylhepta-2,4-dienamide], the IC50 in test [5] was approximately 1.8 nM.

Turning to `O=C1O[C@H]([C@@H](O)CO)C(O)=C1O` [Vitamin C], the “effect on percentage” value in the test on cPE cells is given as “effective in increasing”.
